Test results as given in patent US20130310374A1, “Substituted Imidazoquinoline Derivatives” (PIRAMAL ENTERPRISES LIMITED`, priority 2010, published 2013).

Columns and labels:
MDA MB 231 = experiment: Cytotoxicity propidium iodide assay, MDA MB 231; type: cell-based; conditions: Homo sapiens; MDA MB 231 (breast), 48 hours treatment; read-out: IC50 Values in μM, C3a
MDA MB 468 = experiment: Cytotoxicity propidium iodide assay, MDA MB 468; type: cell-based; conditions: Homo sapiens; MDA MB 468 (breast), 48 hours treatment; read-out: IC50 Values in μM, C3b
Summary of the method: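 Following a 48 h treatment with various compound concentrations, cells plated at 3000 per well were stained with […] propidium iodide and frozen overnight. Fluorescence after thawing gave percent viability against untreated controls, from which IC50 values were calculated.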

PANC 1 = experiment: Cytotoxicity propidium iodide assay, PANC 1; type: cell-based; conditions: Homo sapiens; PANC 1 (pancreatic), 48 hours treatment; read-out: IC50 Values in μM, C4a
Description: (§1) The assay was designed as in the reference, Anticancer Drugs, 2002, 13, 1-8, the disclosure of which is incorporated herein by reference for the teaching of the assay.
(§2) Cells from cell lines (ATCC) as mentioned in the table given below were seeded at a density of 3000 cells/well in a white opaque 96-well plate. Following incubation at 37° C./5% CO2 for a period of 18-24 hours, the cells were treated with various concentrations (stock solution was prepared in DMSO and subsequent dilutions were made in media as per ATCC guidelines) of the compounds of the present invention for a period of 48 hours. At the end of treatment, the culture medium was discarded, the cells were washed with 1×PBS and 200 μL of […] propidium iodide was added to each well. The plates were frozen at […] overnight. For analysis, the plates were warmed to RT, allowed to thaw and were read in PoleStar fluorimeter with the fluorescence setting. The percentage of viable cells in the non-treated set of wells was considered to be 100 and the percentage viability following treatment was calculated accordingly. IC50 values were calculated from graphs plotted using these percentages. IC50 values for certain compounds of present invention are depicted in Table 1 and % Inhibition of certain compounds of present invention are depicted in Table 2.

LN18 = experiment: Cytotoxicity propidium iodide assay, LN18; type: cell-based; conditions: Homo sapiens, LN-18; LN18 (glioblastoma), 48 hours treatment; read-out: IC50 Values in μM, C5b
Description: as §1, §2

IFN-γ = experiment: Con-A-induced IFN-γ production from hPBMC; type: cell-based; conditions: Homo sapiens, concanavalin A 1 μg/mL, 18 hours
Description: Con-A-Induced IFN-γ Production from hPBMC
(§3) Peripheral blood was collected from normal healthy volunteers after informed consent. Peripheral blood mononuclear cells (hPBMC) were harvested using Ficoll-Hypaque density gradient centrifugation (1.077 g/mL; Sigma Aldrich). hPBMCs were resuspended in RPMI 1640 culture medium (Gibco BRL, Pasley, UK) containing 10% FCS, 100 U/mL penicillin (Sigma Chemical Co. St Louis, Mo.) and […] streptomycin (Sigma Chemical Co. St Louis, Mo.) at 1×10^6 cells/mL. 1×10^5 hPBMCs/well were pre-treated with 0.025 μM of compounds of present invention or 0.5% DMSO (vehicle control) for 30 minutes at 37° C. Subsequently, these cells were stimulated with 1 μg/mL concanavalin A (Sigma Chemical Co., St. Louis, Mo.). Following 18 hours of incubation at 37° C., supernatants were collected and stored at −70° C. until assayed for human IFN-γ by ELISA as described by the manufacturer (OptiEIA ELISA sets, BD BioSciences). In every experiment, cyclosporin (1 μM) was used as a positive control for inhibiting induced IFN-γ production. In all experiments, the toxicity of test compounds was ascertained, in parallel, using the MTS (3-(4,5-dimethylthiazol-2-yl)-5-(3-carboxymethoxyphenyl)-2-(4-sulfonyl)-2H-tetrazolium) assay as described in Am. J. Physiol. Cell Physiol., 2003, 285, C813-C822.

hPBMC = experiment: MTS toxicity assay in parallel to Con-A-induced IFN-γ assay; type: cell-based, human; conditions: Con-A experiment
Description: as §3

TNF-α = experiment: Anti-CD3 mAb and anti-CD28 mAb-induced cytokine production assay, TNF-α; type: cell-based; conditions: Homo sapiens, hPBMC, anti-CD3/anti-CD28, 18 hours
Description: (§4) Anti-CD3 mAb and Anti-CD28 mAb-Induced Cytokine Production Assay
(§5) Preparation of anti-CD3/anti-CD28 coated plates: 96 well plates were coated with goat anti-mouse IgG, Fc (Millipore) at a concentration of 16.5 μg/mL in coating buffer ([…] NaHCO3, 3.56 g Na2CO3, pH 9.5). Following overnight incubation at 4° C., the plates were washed and then incubated with anti-CD3 (3.5 μg/mL; R&D Systems) and anti-CD28 (35 ng/mL; R&D Systems) cocktail for 3 hours. Subsequently, the plates were washed, and used for hPBMC stimulation.
(§6) hPBMC stimulation: Peripheral blood was collected from normal healthy volunteers after informed consent. Peripheral blood mononuclear cells (hPBMC) were harvested using Ficoll-Hypaque density gradient centrifugation (1.077 g/mL; Sigma Aldrich). hPBMCs were resuspended in RPMI 1640 culture medium (Gibco BRL, Pasley, UK) containing 10% FCS, 100 U/mL penicillin (Sigma Chemical Co. St Louis, Mo.) and […] streptomycin (Sigma Chemical Co. St Louis, Mo.) at 1.25×10^6 cells/mL of assay medium. 2.5×10^5 hPBMCs were added per well of 96-well plate coated with or without anti-CD3/anti-CD28 mAbs. Simultaneously, 0.025 μM of compounds of the present invention or 0.5% DMSO (vehicle control) were added to appropriate wells. The cells were then incubated for 18 hours at 37° C., 5% CO2 following which supernatants were collected, stored at […] and assayed later for TNF-α, IL-6 and IFN-γ by ELISA (OptiEIA ELISA sets; BD Biosciences). In every experiment, each condition was run in triplicate wells. In all experiments, the toxicity of test compounds was ascertained, in parallel, using the MTS (3-(4,5-dimethylthiazol-2-yl)-5-(3-carboxymethoxyphenyl)-2-(4-sulfonyl)-2H-tetrazolium) assay as described in Am. J. Physiol. Cell Physiol., 2003, 285, C813-C822.

IL-6 = experiment: Anti-CD3 mAb and anti-CD28 mAb-induced cytokine production assay, IL-6; type: cell-based; conditions: Homo sapiens, hPBMC, anti-CD3/anti-CD28, 18 hours
Description: as §4, §5, §6

Work on CC(C)(C#N)c1ccc(-n2c(=O)n(CC#N)c3cnc4ccc(-c5cnc(N)c(C(F)(F)F)c5)cc4c32)cn1 [Example 16, 2-(5-(8-(6-Amino-5-(trifluoromethyl)pyridin-3-yl)-3-(cyanomethyl)-2-oxo-2,3-dihydro-1H-imidazo[4,5-c]quinolin-1-yl)pyridin-2-yl)-2-methylpropanenitrile] yielded an IC50 (MDA MB 231) of 0.07 µM, an IC50 (MDA MB 468) of 0.013 µM and an IC50 (PANC 1) of 0.017 µM. For the same compound, the IC50 (LN18) was 0.44 µM, the inhibition at 0.025 µM (IFN-γ) was 31% and the “% Toxicity at 0.025 μM” value (hPBMC) was 3%. For the same compound, the inhibition at 0.025 µM (TNF-α) was 81% and the inhibition at 0.025 µM (IL-6) was 75%.
In the case of Cn1c(=O)n(-c2ccc(C(C)(C)C#N)nc2)c2c3cc(-c4cnc5ccccc5c4)ccc3ncc21 [Example 2, 2-Methyl-2-(5-(3-methyl-2-oxo-8-(quinolin-3-yl)-2,3-dihydro-1H-imidazo[4,5-c]quinolin-1-yl)pyridin-2-yl)propanenitrile], the IC50 (MDA MB 231) was 0.07 µM, the IC50 (MDA MB 468) was 0.3 µM and the IC50 (PANC 1) was 0.1 µM. The IC50 (LN18) was 0.33 µM, the inhibition at 0.025 µM (IFN-γ) was 58% and the “% Toxicity at 0.025 μM” value (hPBMC) was 12%. It also gave an inhibition at 0.025 µM (TNF-α) of 63% and an inhibition at 0.025 µM (IL-6) of 43%.
Work on COc1ccc(-n2c(=O)n(C)c3cnc4ccc(-c5cnc(N)c(C(F)(F)F)c5)cc4c32)cn1 [Example 19, 8-(6-Amino-5-(trifluoromethyl)pyridin-3-yl)-1-(6-methoxypyridin-3-yl)-3-methyl-1H-imidazo[4,5-c]quinolin-2(3H)-one] yielded an IC50 (MDA MB 231) of 0.17 µM, an IC50 (MDA MB 468) of 0.18 µM and an IC50 (PANC 1) of 0.026 µM. The IC50 (LN18) was 0.096 µM, the inhibition at 0.025 µM (IFN-γ) was 93% and the “% Toxicity at 0.025 μM” value (hPBMC) was 18%. For the same compound, the inhibition at 0.025 µM (TNF-α) was 87% and the inhibition at 0.025 µM (IL-6) was 86%.
With Cn1c(=O)n(-c2ccc(C(C)(C)C#N)nc2)c2c3cc(-c4cnc(N)c(C(F)(F)F)c4)ccc3ncc21 [Example 3, 2-(5-(8-(6-Amino-5-(trifluoromethyl)pyridin-3-yl)-3-methyl-2-oxo-2,3-dihydro-1H-imidazo[4,5-c]quinolin-1-yl)pyridin-2-yl)-2-methylpropanenitrile] the IC50 (MDA MB 231) was 0.014 µM, the IC50 (MDA MB 468) was 0.06 µM and the IC50 (PANC 1) was 0.01 µM. For the same compound, the IC50 (LN18) was 0.144 µM, the inhibition at 0.025 µM (IFN-γ) was 98% and the “% Toxicity at 0.025 μM” value (hPBMC) was 21%. It also gave an inhibition at 0.025 µM (TNF-α) of 92% and an inhibition at 0.025 µM (IL-6) of 84%.
